Laboratory results reported in PubChem BioAssay AID1259408 (Genetic Toxicology Data Bank (GENE-TOX), 2018).
The source made the active and inactive calls. How the calls were made is not given here.

Test system: GENE-TOX genotoxicity assays, various organisms and cells
Assay: GENE-TOX mutagenicity studies
Details: for call: Assay Type: In vivo carcinogenicity studies
[1] = Species/Cell Type: Nonhuman, Assay Code: CCGT, Evaluation Type: Evaluation A (Pre-1980)
[2] = Species/Cell Type: Nonhuman, Assay Type: Sister-chromatid exchange (SCE) in vitro, Assay Code: SC2+D, Dose Response: With dose response, Evaluation Type: Evaluation A (Pre-1980)

How did the mutagenic call (Species/Cell Type: Chinese hamster lung (V79) cells, Assay Type: Forward gene mutation at the HPRT or ouabain locus, Assay Code: V79+, Evaluation Type: Evaluation A (Pre-1980)) turn out when `Cc1c2c(cc3c1ccc1ccccc13)C=C[C@@H](O)[C@@H]2O` was run?
The mutagenic call was “active; positive”.

And the mutagenic call (Species/Cell Type: Mouse prostate cells, Assay Type: Cell transformation, Assay Code: CTM+, Evaluation Type: Evaluation A (Pre-1980))?
Its mutagenic call is “active; positive”.

And the call [1]?
Its call is “no conclusion”.

What about the mutagenic call [2] of the same compound?
The mutagenic call was “active; positive”.

Which mutagenic call (Species/Cell Type: Escherichia coli polA (W3119 vs P3478), Assay Type: Rec-assay, DNA effects (bacterial DNA repair), Assay Code: RE1-, Evaluation Type: Evaluation A (Pre-1980)) does the source give for `OCC(S)CS` (stereo not given) here?
The mutagenic call was “inactive; negative”.

For `c1cc2ccc3cccc4ccc(c1)c2c34`, which mutagenic call (Species/Cell Type: Chinese hamster lung (V79) cells, Assay Type: Forward gene mutation at the HPRT or ouabain locus, Assay Code: V79-*, Activation: With metabolic activation, Evaluation Type: Evaluation A (Pre-1980)) is on record?
Its mutagenic call is “inactive; negative”.

And the mutagenic call (Species/Cell Type: Chinese hamster lung (V79) cells, Assay Type: Forward gene mutation, host-mediated assay, Assay Code: HMG-, Evaluation Type: Evaluation A (Pre-1980))?
Its mutagenic call is “inactive; negative”.

What about the mutagenic call (Species/Cell Type: Fischer rat embryo (RLV/1706) cells, Assay Type: Cell transformation, viral enhanced, Assay Code: CTR-, Evaluation Type: Evaluation A (Pre-1980)) of the same compound?
The mutagenic call was “inactive; negative”.

What about the mutagenic call (Species/Cell Type: Human diploid fibroblasts, Assay Type: Unscheduled DNA synthesis (UDS) in vitro, DNA effects, Assay Code: UDH-*, Activation: With metabolic activation, Evaluation Type: Evaluation A (Pre-1980)) of the same compound?
The mutagenic call was “inactive; negative”.

What about the mutagenic call (Species/Cell Type: Mammalian polychromatic erythrocytes, Assay Type: Micronucleus test, chromosome aberrations, Assay Code: MNTT, Evaluation Type: Evaluation A (Pre-1980)) of the same compound?
The mutagenic call was “no conclusion”.

And the mutagenic call (Species/Cell Type: Mouse (BALB/c-3T3) cells, Assay Type: Cell transformation, Assay Code: CTB-, Evaluation Type: Evaluation A (Pre-1980))?
Its mutagenic call is “inactive; negative”.

And the mutagenic call (Species/Cell Type: Mouse embryo (AKR/ME) cells, Assay Type: Cell transformation, Assay Code: CTK-, Evaluation Type: Evaluation A (Pre-1980))?
Its mutagenic call is “inactive; negative”.

And the mutagenic call (Species/Cell Type: Mouse, Sex: Male, Assay Type: Sperm morphology, Assay Code: SPI-, Evaluation Type: Evaluation A (Pre-1980))?
The mutagenic call was “inactive; negative”.

What about the mutagenic call (Species/Cell Type: Nonhuman, Assay Type: Chromosome aberrations in vitro, Assay Code: CY&-, Evaluation Type: Evaluation A (Pre-1980)) of the same compound?
The mutagenic call was “inactive; negative”.

What about the call [1] of the same compound?
The call was “no conclusion”.

What about the mutagenic call (Species/Cell Type: Nonhuman, Assay Type: Sister-chromatid exchange (SCE) in vitro, Assay Code: SC2+, Evaluation Type: Evaluation B (Post-1980)) of the same compound?
Its mutagenic call is “active; positive”.

What about the mutagenic call (Species/Cell Type: Nonhuman, Assay Type: Sister-chromatid exchange (SCE) in vitro, Assay Code: SC2T, Evaluation Type: Evaluation A (Pre-1980)) of the same compound?
The mutagenic call was “no conclusion”.

What about the mutagenic call (Species/Cell Type: Nonhuman, Assay Type: Sister-chromatid exchange (SCE) in vivo, Assay Code: SC3-, Evaluation Type: Evaluation A (Pre-1980)) of the same compound?
Its mutagenic call is “inactive; negative”.

What about the mutagenic call (Species/Cell Type: Salmonella typhimurium (one or more of the five standard strains: TA98, TA100, TA1535, TA1537, and TA1538), Assay Type: Histidine reverse gene mutation, Ames assay, Assay Code: SAL-, Evaluation Type: Evaluation A (Pre-1980)) of the same compound?
Its mutagenic call is “inactive; negative”.

What about the mutagenic call (Species/Cell Type: Syrian hamster embryo (SHE) cells, Assay Type: Cell transformation, clonal assay, Assay Code: CTC-, Evaluation Type: Evaluation A (Pre-1980)) of the same compound?
Its mutagenic call is “inactive; negative”.

What about the mutagenic call (Species/Cell Type: Tradescantia species, Assay Type: Gene mutation, Assay Code: TRM+D, Dose Response: With dose response, Evaluation Type: Evaluation A (Pre-1980)) of the same compound?
The mutagenic call was “active; positive”.

Which mutagenic call (Species/Cell Type: Escherichia coli polA (W3119 vs P3478), Assay Type: Rec-assay, DNA effects (bacterial DNA repair), Assay Code: RE1+, Evaluation Type: Evaluation A (Pre-1980)) does the source give for `O=S1(=O)CCCO1` here?
Its mutagenic call is “active; positive”.

What about the mutagenic call (Species/Cell Type: Fischer rat embryo (RLV/1706) cells, Assay Type: Cell transformation, viral enhanced, Assay Code: CTR+, Evaluation Type: Evaluation A (Pre-1980)) of the same compound?
The mutagenic call was “active; positive”.

And the mutagenic call (Species/Cell Type: Hordeum vulgare (barley), Assay Type: Chromosome aberrations, Assay Code: HOC+D, Dose Response: With dose response, Evaluation Type: Evaluation A (Pre-1980))?
The mutagenic call was “active; positive”.

And the mutagenic call (Species/Cell Type: Human diploid fibroblasts, Assay Type: Unscheduled DNA synthesis (UDS) in vitro, DNA effects, Assay Code: UDH+D, Dose Response: With dose response, Evaluation Type: Evaluation A (Pre-1980))?
The mutagenic call was “active; positive”.

And the call (Species/Cell Type: Nonhuman, Assay Code: CCG+, Evaluation Type: Evaluation A (Pre-1980))?
Its call is “active; positive”.

And the mutagenic call [2]?
Its mutagenic call is “active; positive”.

And the mutagenic call (Species/Cell Type: Saccharomyces cerevisiae, Assay Type: Mitotic recombination or gene conversion, Assay Code: YEC+, Evaluation Type: Evaluation A (Pre-1980))?
Its mutagenic call is “active; positive”.

And the mutagenic call (Species/Cell Type: Saccharomyces cerevisiae, Assay Type: Mitotic recombination or gene conversion, Assay Code: YEH+, Evaluation Type: Evaluation A (Pre-1980))?
The mutagenic call was “active; positive”.

And the mutagenic call (Species/Cell Type: Salmonella typhimurium (one or more of the five standard strains: TA98, TA100, TA1535, TA1537, and TA1538), Assay Type: Histidine reverse gene mutation, Ames assay, Assay Code: SAL+, Evaluation Type: Evaluation A (Pre-1980))?
The mutagenic call was “active; positive”.

And the mutagenic call (Species/Cell Type: Salmonella typhimurium, Assay Type: Forward and reverse gene mutation, host-mediated assay, Assay Code: HMA+, Evaluation Type: Evaluation A (Pre-1980))?
Its mutagenic call is “active; positive”.

And the mutagenic call (Species/Cell Type: Schizosaccharomyces pombe, Assay Type: Reverse gene mutation, Assay Code: YEZ+, Evaluation Type: Evaluation A (Pre-1980))?
The mutagenic call was “active; positive”.

What about the mutagenic call (Species/Cell Type: Syrian hamster embryo (SA7/SHE) cells, Assay Type: Cell transformation, viral enhanced, Assay Code: CT7+, Evaluation Type: Evaluation A (Pre-1980)) of the same compound?
The mutagenic call was “active; positive”.

What about the mutagenic call (Species/Cell Type: Syrian hamster embryo (SHE) cells, Assay Type: Cell transformation, clonal assay, Assay Code: CTCT, Evaluation Type: Evaluation A (Pre-1980)) of the same compound?
Its mutagenic call is “no conclusion”.

And the mutagenic call (Species/Cell Type: Vicia faba, Assay Type: Chromosome aberrations, Assay Code: VIC+, Evaluation Type: Evaluation A (Pre-1980))?
The mutagenic call was “active; positive”.
